# Data from BindingDB's records for doi:10.1021/jm00055a007 (Abbott Laboratories, 1993).
# pKi: −log10 of the molar value. Square brackets hold non-standard residues; d marks the D form. Peptide text beside a SMILES is read from it. 1Nal = N[C@@H](Cc1cccc2ccccc12)C(=O)O; pGlu = O=C1CC[C@@H](C(=O)O)N1
# Target: Gonadotropin-releasing hormone receptor (Rattus norvegicus) (UniProt P30969)
# Sequence (P30969 whole entry, looked up): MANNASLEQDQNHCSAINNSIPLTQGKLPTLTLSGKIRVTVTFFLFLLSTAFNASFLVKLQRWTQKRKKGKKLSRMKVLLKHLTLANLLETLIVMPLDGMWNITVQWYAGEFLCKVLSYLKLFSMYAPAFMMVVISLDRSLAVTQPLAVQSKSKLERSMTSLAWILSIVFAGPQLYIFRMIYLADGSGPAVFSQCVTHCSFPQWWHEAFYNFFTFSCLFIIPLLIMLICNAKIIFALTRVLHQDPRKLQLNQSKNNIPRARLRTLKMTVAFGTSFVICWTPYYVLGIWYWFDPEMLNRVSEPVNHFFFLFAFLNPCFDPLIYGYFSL
row,pKi,SMILES
1,8.49,CCNC(=O)[C@@H]1CCCN1C(=O)[C@H](CCCN=C(N)N)NC(=O)[C@H](CC(C)C)NC(=O)[C@@H](CC(C)C)NC(=O)[C@H](Cc1ccc(O)cc1)NC(=O)[C@H](CO)NC(=O)[C@H](Cc1cccc2ccccc12)N(C)C(=O)[C@H](Cc1c[nH]cn1)NC(=O)[C@@H]1CCC(=O)N1 [leuprolide 3NMe1Nal]
2,8.57,CC(C)C[C@H](NC(=O)[C@@H](Cc1ccc2ccccc2c1)N(C)C(=O)[C@H](Cc1ccc(O)cc1)NC(=O)[C@H](CO)NC(=O)[C@H](Cc1c[nH]c2ccccc12)NC(=O)[C@H](Cc1c[nH]cn1)NC(=O)[C@@H]1CCC(=O)N1)C(=O)N[C@@H](CCCN=C(N)N)C(=O)N1CCC[C@H]1C(=O)NCC(N)=O [nafarelin 6NMe2Nal]
3,10.05,CCNC(=O)[C@@H]1CCCN1C(=O)[C@H](CCCN=C(N)N)NC(=O)[C@H](CC(C)C)NC(=O)[C@@H](Cc1c[nH]c2ccccc12)NC(=O)[C@H](Cc1ccc(O)cc1)N(C)C(=O)[C@H](CO)NC(=O)[C@H](Cc1c[nH]c2ccccc12)NC(=O)[C@H](Cc1c[nH]cn1)NC(=O)[C@@H]1CCC(=O)N1 [deslorelin 5NMeTyr]
4,10.52,CC(C)C[C@H](NC(=O)[C@@H](Cc1ccc2ccccc2c1)NC(=O)[C@H](Cc1ccc(O)cc1)NC(=O)[C@H](CO)NC(=O)[C@H](Cc1cccc2ccccc12)NC(=O)[C@H](Cc1cnc[nH]1)NC(=O)[C@@H]1CCC(=O)N1)C(=O)N[C@@H](CCCN=C(N)N)C(=O)N1CCC[C@H]1C(=O)NCC(N)=O [nafarelin 31Nal]
5,10.52,CC(C)C[C@H](NC(=O)[C@@H](Cc1ccc2ccccc2c1)NC(=O)[C@H](Cc1ccc(O)cc1)N(C)C(=O)[C@H](CO)NC(=O)[C@H](Cc1c[nH]c2ccccc12)NC(=O)[C@H](Cc1c[nH]cn1)NC(=O)[C@@H]1CCC(=O)N1)C(=O)N[C@@H](CCCN=C(N)N)C(=O)N1CCC[C@H]1C(=O)NCC(N)=O [nafarelin 5NMeTyr]
6,10.05,CCNC(=O)[C@@H]1CCCN1C(=O)[C@H](CCCN=C(N)N)NC(=O)[C@H](CC(C)C)NC(=O)[C@@H](CC(C)C)NC(=O)[C@H](Cc1ccc(O)cc1)NC(=O)[C@H](CO)NC(=O)[C@H](Cc1cccc2ccccc12)NC(=O)[C@H](Cc1c[nH]cn1)NC(=O)[C@@H]1CCC(=O)N1 [leuprolide 31Nal] ([pGlu]H[1Nal]SY[dL]LRP-NHEt)
7,9.49,CC(C)C[C@H](NC(=O)[C@@H](Cc1c[nH]c2ccccc12)NC(=O)[C@H](Cc1ccc(O)cc1)NC(=O)[C@H](CO)NC(=O)[C@H](Cc1c[nH]c2ccccc12)NC(=O)[C@H](Cc1c[nH]cn1)NC(=O)[C@@H]1CCC(=O)N1)C(=O)N[C@@H](CCCN=C(N)N)C(=O)N1CCC[C@H]1C(=O)N(C)CC(N)=O [deslorelin 10SarNH2]
8,9.51,CCNC(=O)[C@@H]1CCCN1C(=O)[C@H](CCCN=C(N)N)N(C)C(=O)[C@H](CC(C)C)NC(=O)[C@@H](Cc1c[nH]c2ccccc12)NC(=O)[C@H](Cc1ccc(O)cc1)NC(=O)[C@H](CO)NC(=O)[C@H](Cc1c[nH]c2ccccc12)NC(=O)[C@H](Cc1cnc[nH]1)NC(=O)[C@@H]1CCC(=O)N1 [deslorelin 8NMeArg]
9,7.92,CCNC(=O)[C@@H]1CCCN1C(=O)[C@H](CCCN=C(N)N)NC(=O)[C@H](CC(C)C)NC(=O)[C@@H](CC(C)C)NC(=O)[C@H](Cc1ccc(O)cc1)NC(=O)[C@H](CO)NC(=O)[C@H](Cc1c[nH]c2ccccc12)NC(=O)[C@H](Cc1ccccc1)N(C)C(=O)[C@@H]1CCC(=O)N1 [leuprolide 2NMePhe]
10,8.90,CC(C)C[C@H](NC(=O)CNC(=O)[C@H](Cc1ccc(O)cc1)NC(=O)[C@H](CO)NC(=O)[C@H](Cc1c[nH]c2ccccc12)NC(=O)[C@H](Cc1cnc[nH]1)NC(=O)[C@@H]1CCC(=O)N1)C(=O)N[C@@H](CCCN=C(N)N)C(=O)N1CCC[C@H]1C(=O)NCC(=O)O [CAS_35263-73-1]
11,7.55,CC(C)C[C@H](NC(=O)[C@@H](Cc1ccc2ccccc2c1)NC(=O)[C@H](Cc1ccc(O)cc1)NC(=O)[C@H](CO)NC(=O)[C@H](Cc1c[nH]c2ccccc12)NC(=O)[C@H](Cc1c[nH]cn1)NC(=O)[C@@H]1CCC(=O)N1)C(=O)N(C)[C@@H](CCCN=C(N)N)C(=O)N1CCC[C@H]1C(=O)NCC(N)=O [nafarelin 8NMeArg]
